In assay [1] the target is DNA-dependent protein kinase catalytic subunit (Homo sapiens, UniProt P78527). The assay can be described thus: DNA-PK Enzyme-Linked Immunosorbent Assay. Here is the method:
On day one, a 96-well plate (ThermoFisher, Cat #: 442404) was coated with GST-p53 (1-101) peptide (purified by Pharmaron, BCS department) by diluting 3 μg of GST-p53 in each well with 0.1 M Na2CO3/NaHCO3 (pH 9.6). The plate was incubated overnight at 4° C. On the second day, the coating buffer was removed, and the plate was washed twice with PBST (1×PBS containing 0.1% Tween-20). The DNA-PK enzyme solution (Invitrogen, #PR9107A; the final DNA-PK concentration: 0.1 μg/mL) was then added. The compounds were serially diluted to the final maximal concentration of 100 nM (3 fold series dilution, a total of 10 doses), and an ATP solution (the final ATP concentration: 20 μM) was added to the plate. Incubate the plate at 25° C. for 1 hour. The plate was washed three times with PBST (1×PBS containing 0.1% Tween-20) and blocked with a solution of PBST and 1% BSA at 4° C. overnight. The third day, the plate was washed four times with PBST (1×PBS containing 0.1% Tween-20). Anti-phospho-p53 primary antibody (cell signaling Technology, #9286, Phospho-p53 (Ser15) (16G8) Mouse mAb) (1/1000) was added to each well. The plate was sealed, incubated 1 h at 37° C., and washed four times with PBST (1×PBS containing 0.1% Tween-20). An HRP-linked secondary antibody (Cell signaling Technology, #7076, Anti-mouse IgG, HRP-linked Antibody) (1/1000) (100 μL) was added to each well. […]

In assay [2] the target is T1, Phosphatidylinositol 4,5-bisphosphate 3-kinase catalytic subunit delta isoform (Homo sapiens, UniProt O00329).
T1 sequence (O00329 whole entry): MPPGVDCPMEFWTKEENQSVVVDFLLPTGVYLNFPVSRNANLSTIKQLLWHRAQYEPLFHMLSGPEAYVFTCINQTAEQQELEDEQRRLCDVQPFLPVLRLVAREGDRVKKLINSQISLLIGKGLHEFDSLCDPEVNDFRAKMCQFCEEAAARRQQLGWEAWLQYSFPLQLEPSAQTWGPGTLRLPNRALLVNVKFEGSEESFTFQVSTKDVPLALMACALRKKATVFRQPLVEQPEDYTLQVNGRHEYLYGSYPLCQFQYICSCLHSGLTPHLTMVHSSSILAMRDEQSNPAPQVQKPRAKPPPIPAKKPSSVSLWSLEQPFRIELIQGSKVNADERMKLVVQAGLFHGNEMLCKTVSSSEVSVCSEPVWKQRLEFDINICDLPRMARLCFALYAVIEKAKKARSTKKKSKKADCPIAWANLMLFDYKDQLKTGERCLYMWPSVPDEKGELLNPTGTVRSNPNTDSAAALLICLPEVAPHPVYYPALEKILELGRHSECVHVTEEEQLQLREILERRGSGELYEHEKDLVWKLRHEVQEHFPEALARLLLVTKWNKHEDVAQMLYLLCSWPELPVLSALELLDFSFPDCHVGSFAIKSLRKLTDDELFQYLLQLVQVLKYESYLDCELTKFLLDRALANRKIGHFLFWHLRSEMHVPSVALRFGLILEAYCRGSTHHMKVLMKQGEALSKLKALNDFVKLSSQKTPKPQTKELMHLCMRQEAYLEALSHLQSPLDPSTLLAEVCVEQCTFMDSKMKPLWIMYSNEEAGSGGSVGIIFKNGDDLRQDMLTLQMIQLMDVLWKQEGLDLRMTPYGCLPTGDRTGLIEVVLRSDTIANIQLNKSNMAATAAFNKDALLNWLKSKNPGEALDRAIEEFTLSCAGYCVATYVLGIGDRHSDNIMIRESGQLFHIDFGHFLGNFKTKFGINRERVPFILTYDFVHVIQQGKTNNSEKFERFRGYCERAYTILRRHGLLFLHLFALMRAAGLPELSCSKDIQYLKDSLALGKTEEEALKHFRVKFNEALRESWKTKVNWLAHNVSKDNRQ
The assay can be described thus: PI3Kα and PI3Kδ Biochemical Assay. How it is done: (§1) PI3Kα and PI3Kδ Kinase reactions were performed in a 5 μL volume in low-volume 384-well plates. Typically, PerkinElmer model 6008280 plates were used. The 1× kinase reaction buffer consisted of 50 mM HEPES pH 7.5, 3 mM MgCl2, 0.03% CHAPS, 1 mM EGTA, 100 mM NaCl, and 2 mM DTT. PI3Kα (ThermoFisher, #PV4788; the final PI3Kα concentration: 120 ng/mL) or PI3Kδ enzyme solution (ThermoFisher, #PV6451; the final PI3Kδ concentration: 250 ng/mL) was added to the plate, compounds were serially diluted to the final maximal concentration of 100 nM (3 fold series dilution, a total of 10 doses), and the PIP2:3PS (the final concentration: 10 μg/mL) and ATP solution (the final ATP concentration: 10 μM) was added to the 384-well plate. The plate was incubated at 25° C. for 1 hour. ADP-Glo reagent buffer (5 μL) was added to each well. The plate was sealed and incubated for 40 min at 25° C. ADP-Glo detection buffer (10 μL) was added to each well, and the plate was incubated for 40 min at 25° C. and read on a plate reader configured for Luminescence.

Assay [3] deals with Phosphatidylinositol 4,5-bisphosphate 3-kinase catalytic subunit alpha isoform (Homo sapiens, UniProt P42336). The assay is described as follows: PI3Kα and PI3Kδ Biochemical Assay. Here is the method:
as §1

Sequence of Phosphatidylinositol 4,5-bisphosphate 3-kinase catalytic subunit alpha isoform (P42336 whole entry, canonical isoform): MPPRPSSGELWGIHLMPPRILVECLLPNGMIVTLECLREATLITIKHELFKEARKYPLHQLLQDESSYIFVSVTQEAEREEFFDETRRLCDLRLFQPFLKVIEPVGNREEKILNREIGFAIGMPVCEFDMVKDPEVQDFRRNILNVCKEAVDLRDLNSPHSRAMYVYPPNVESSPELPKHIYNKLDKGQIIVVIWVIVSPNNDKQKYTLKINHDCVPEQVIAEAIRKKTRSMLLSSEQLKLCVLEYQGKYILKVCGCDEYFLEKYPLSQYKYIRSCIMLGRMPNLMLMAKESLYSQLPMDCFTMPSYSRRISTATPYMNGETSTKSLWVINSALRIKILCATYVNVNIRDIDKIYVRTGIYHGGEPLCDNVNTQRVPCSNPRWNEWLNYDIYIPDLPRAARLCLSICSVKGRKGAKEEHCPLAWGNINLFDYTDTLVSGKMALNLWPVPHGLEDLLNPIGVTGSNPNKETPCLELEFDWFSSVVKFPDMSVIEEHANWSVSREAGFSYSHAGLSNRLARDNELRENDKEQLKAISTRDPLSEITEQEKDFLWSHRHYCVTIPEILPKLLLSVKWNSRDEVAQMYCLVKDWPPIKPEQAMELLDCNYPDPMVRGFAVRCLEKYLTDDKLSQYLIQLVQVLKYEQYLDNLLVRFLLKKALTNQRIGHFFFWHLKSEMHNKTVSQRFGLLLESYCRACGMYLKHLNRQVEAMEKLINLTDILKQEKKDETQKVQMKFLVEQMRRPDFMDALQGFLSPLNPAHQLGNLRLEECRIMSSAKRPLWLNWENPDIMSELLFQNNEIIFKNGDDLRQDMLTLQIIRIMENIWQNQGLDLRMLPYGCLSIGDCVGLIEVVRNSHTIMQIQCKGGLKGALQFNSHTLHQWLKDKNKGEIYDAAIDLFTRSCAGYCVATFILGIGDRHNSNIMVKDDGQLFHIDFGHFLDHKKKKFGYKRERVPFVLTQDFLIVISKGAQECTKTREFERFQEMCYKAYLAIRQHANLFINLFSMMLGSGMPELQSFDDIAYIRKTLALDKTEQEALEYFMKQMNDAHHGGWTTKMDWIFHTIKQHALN
Sequence of DNA-dependent protein kinase catalytic subunit (P78527 whole entry): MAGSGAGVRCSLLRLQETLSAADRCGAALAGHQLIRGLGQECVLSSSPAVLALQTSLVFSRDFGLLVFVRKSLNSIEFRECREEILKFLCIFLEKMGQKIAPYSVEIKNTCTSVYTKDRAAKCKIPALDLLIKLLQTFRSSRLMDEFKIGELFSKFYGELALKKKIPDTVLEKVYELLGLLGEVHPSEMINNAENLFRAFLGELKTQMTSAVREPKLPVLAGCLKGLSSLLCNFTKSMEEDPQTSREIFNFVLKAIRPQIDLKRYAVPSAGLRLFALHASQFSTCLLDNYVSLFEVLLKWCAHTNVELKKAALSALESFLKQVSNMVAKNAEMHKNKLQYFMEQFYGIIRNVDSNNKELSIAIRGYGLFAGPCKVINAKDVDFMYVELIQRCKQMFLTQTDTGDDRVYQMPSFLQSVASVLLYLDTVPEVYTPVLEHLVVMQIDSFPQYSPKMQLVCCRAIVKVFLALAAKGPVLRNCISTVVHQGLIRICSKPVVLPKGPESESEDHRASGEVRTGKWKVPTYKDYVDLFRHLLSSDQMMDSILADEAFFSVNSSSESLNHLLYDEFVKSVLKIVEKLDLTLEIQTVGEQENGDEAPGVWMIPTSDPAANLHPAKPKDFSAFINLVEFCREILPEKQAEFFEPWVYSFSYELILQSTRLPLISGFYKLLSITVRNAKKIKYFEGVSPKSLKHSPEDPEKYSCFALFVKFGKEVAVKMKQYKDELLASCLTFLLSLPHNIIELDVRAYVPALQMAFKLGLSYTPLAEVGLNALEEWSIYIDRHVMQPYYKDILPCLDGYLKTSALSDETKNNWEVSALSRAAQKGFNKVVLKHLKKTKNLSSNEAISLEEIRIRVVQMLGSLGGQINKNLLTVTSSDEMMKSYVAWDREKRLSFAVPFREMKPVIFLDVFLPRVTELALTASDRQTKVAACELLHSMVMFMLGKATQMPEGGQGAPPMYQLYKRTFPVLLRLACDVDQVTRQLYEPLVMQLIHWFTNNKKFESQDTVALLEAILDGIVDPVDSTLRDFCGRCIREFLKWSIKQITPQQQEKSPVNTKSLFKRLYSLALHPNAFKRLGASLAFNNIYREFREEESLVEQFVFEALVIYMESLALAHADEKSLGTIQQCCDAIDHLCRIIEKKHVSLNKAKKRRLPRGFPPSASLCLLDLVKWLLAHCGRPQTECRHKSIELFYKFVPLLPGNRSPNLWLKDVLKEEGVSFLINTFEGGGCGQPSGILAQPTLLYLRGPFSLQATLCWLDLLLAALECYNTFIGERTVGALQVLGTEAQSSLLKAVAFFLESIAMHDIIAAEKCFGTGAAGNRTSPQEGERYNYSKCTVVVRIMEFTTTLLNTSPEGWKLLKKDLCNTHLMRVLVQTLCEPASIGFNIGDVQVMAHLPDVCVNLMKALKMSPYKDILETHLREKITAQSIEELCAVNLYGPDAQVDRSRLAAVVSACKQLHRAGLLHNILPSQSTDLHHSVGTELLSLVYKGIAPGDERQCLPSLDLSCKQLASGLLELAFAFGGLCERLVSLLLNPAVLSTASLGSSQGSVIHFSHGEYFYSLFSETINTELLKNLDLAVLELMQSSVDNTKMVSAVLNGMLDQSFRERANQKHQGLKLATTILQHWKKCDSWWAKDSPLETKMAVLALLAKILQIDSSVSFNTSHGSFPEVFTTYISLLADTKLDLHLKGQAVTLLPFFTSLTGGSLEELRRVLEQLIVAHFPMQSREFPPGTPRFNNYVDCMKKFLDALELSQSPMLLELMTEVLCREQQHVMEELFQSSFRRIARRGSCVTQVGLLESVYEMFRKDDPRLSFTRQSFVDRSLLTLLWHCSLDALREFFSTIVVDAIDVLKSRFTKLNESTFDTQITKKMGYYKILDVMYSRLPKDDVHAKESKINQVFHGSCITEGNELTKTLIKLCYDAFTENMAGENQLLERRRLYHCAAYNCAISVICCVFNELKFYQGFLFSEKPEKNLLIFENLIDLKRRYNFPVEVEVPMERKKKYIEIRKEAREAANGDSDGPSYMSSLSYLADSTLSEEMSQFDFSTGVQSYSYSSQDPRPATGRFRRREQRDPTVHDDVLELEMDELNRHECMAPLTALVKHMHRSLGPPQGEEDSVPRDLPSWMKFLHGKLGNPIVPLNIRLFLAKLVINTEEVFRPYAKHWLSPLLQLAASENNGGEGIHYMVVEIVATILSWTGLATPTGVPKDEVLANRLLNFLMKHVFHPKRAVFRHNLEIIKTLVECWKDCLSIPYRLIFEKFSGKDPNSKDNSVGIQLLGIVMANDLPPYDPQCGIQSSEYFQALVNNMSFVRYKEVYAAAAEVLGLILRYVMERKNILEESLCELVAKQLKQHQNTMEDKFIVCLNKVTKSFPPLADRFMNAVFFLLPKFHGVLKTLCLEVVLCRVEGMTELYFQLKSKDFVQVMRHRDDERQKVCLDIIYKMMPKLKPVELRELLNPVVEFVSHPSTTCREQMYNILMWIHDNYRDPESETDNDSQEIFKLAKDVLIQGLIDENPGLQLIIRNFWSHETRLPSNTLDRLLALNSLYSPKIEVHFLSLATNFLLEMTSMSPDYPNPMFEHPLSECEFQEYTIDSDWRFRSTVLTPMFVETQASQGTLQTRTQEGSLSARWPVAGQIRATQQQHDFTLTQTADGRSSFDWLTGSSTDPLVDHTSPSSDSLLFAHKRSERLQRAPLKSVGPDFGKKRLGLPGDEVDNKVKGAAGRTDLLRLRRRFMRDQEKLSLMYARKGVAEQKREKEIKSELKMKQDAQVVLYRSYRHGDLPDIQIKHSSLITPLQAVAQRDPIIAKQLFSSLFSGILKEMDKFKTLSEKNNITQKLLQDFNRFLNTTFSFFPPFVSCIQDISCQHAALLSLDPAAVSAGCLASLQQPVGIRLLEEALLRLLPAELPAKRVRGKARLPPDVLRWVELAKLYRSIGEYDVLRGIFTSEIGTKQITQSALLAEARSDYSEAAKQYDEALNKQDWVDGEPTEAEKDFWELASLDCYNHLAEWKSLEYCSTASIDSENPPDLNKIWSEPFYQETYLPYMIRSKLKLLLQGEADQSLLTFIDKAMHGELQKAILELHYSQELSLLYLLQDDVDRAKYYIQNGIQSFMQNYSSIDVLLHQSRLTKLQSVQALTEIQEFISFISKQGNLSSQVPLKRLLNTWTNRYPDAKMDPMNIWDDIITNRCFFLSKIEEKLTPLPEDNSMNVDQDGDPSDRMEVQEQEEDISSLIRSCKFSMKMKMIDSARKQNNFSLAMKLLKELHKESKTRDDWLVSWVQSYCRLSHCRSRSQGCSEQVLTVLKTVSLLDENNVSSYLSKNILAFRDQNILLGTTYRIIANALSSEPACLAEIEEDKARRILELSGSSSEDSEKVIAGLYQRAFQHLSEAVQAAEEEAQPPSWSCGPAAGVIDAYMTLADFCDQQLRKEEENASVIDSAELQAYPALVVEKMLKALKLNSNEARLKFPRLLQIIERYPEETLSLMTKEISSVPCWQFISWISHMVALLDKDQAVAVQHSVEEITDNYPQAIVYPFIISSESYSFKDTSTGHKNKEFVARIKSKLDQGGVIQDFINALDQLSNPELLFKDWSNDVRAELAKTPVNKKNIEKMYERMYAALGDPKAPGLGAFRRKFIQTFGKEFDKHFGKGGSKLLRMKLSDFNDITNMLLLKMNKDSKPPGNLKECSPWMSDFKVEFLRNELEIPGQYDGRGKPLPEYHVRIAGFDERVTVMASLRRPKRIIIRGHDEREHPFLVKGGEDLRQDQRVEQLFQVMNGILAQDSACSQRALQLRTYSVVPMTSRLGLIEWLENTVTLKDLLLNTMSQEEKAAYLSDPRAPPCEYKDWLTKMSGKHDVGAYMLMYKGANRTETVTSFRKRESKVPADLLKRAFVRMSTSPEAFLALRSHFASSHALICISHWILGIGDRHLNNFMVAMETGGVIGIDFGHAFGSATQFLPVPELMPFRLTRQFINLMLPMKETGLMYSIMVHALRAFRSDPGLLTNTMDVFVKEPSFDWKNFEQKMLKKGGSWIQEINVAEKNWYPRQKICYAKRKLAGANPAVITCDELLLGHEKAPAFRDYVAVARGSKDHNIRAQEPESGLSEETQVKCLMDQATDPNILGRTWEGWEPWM

For orientation: IC50 means the point on the concentration scale where inhibition reaches its midpoint. Higher therefore signals a need for much substance. With `CC(C)NCCOC1=NCC(C2=CC3C4=C(C=NC3CC2F)N(C)C(=O)C42CCC2)C=C1NS(=O)(=O)C(C)C` (stereo unspecified) [US20250268873, Compound 568], the IC50 stood at 0.79 nM in assay [1], 54 nM in assay [2] and 18 nM in assay [3].

Take `CCS(=O)(=O)NC1=CC(C2=CC3C4=C(C=NC3CC2F)N(C)C(=O)C42CCC2)CN=C1OCCNC(C)C` (stereo unspecified) [US20250268873, Compound 570]: the IC50 in assay [1] worked out at 0.63 nM; in assay [2], 55 nM; in assay [3] it was 21 nM.

For the origin of these results see BindingDB's records for patent US20250268873 (XRAD Therapeutics, 2025).
